The record followed here is ChEMBL document CHEMBL1201862, “PubChem BioAssay data set” (2004).

Molecules are shown by their SMILES.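 Method: 48-hour compound exposure of cells in 96-well plates, five concentrations, linear interpolation of endpoints. GI50 marks 50% less growth.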 The source made the active and inactive calls. No stated cut-off is given here; in the data, active = GI50 up to about 1.1 µM and inactive = higher.

Test systems include SNB-19; MDA-MB-435; SK-MEL-28; T47D; SK-OV-3; HL-60; A549; RPMI-8226; NCI-H460; UO-31; TK-10; NCI/ADR-RES; MCF7; MDA-N; CCRF-CEM; PC-3; SR; OVCAR-3; CAKI-1; NCI-H226.
What all share (test): growth of human tumour cells (NCI), 48 h

Consider `CC(C)(CCCCC(C)(C)[N+](C)(C)C)[N+](C)(C)C`, for which the GI50 in the assay on SNB-19, with MDA-MB-435, with SK-MEL-28, with T47D, in the assay with SK-OV-3 and with HL-60 was > 100 µM (inactive) in each case. Besides, the GI50 with A549, in the assay with RPMI-8226, in the assay on NCI-H460, in the assay with UO-31, with TK-10 and with NCI/ADR-RES was > 100 µM (inactive) throughout. The GI50 with MCF7, with MDA-N, in the assay on CCRF-CEM, in the assay on PC-3 and in the assay with SR was > 100 µM (inactive) throughout.

For `CCOC(=O)c1c(-c2ccc(OC)cc2)c(C#N)c(=S)n(C2OC(COC(C)=O)C(OC(C)=O)C(OC(C)=O)C2OC(C)=O)c1-c1ccccc1` (centres undefined), the GI50 in the assay with SNB-19, in the assay with OVCAR-3, with MDA-MB-435, in the assay on SK-MEL-28, in the assay with T47D and in the assay with SK-OV-3 was > 100 µM (inactive) in each case. For the same compound, the GI50 in the assay on HL-60, with A549, in the assay on RPMI-8226, in the assay on NCI-H460, in the assay with UO-31 and in the assay on TK-10 was > 100 µM (inactive) throughout. The GI50 in the assay with NCI/ADR-RES, in the assay with MCF7, with CAKI-1, in the assay on MDA-N, in the assay with CCRF-CEM and in the assay with PC-3 was > 100 µM (inactive) in each case. For the same compound, in the assay on SR, the GI50 was > 100 µM (inactive).

As for `CCO[C@@]1(COCc2ccccc2)OC(=O)C[C@@H]1N1C(=O)OC[C@@H]1c1ccccc1`, the GI50 is > 100 µM (inactive) in the assay with SNB-19; 41.5 µM (inactive) in the assay on OVCAR-3; > 100 µM (inactive) in the assay on MDA-MB-435; > 100 µM (inactive) in the assay with NCI-H226; > 100 µM (inactive) in the assay with SK-MEL-28; > 100 µM (inactive) with T47D. For the same compound, the GI50 in the assay with SK-OV-3 was > 100 µM (inactive); with HL-60, 42.8 µM (inactive); in the assay with A549, > 100 µM (inactive); with RPMI-8226, > 100 µM (inactive); in the assay on NCI-H460, > 100 µM (inactive); with UO-31, > 100 µM (inactive). Moreover, the GI50 with TK-10 was > 100 µM (inactive); in the assay with NCI/ADR-RES, > 100 µM (inactive); in the assay on MCF7, > 100 µM (inactive); with CAKI-1 it was 25.8 µM (inactive); with MDA-N it was > 100 µM (inactive); with CCRF-CEM, > 100 µM (inactive). For the same compound, the GI50 in the assay with PC-3 is > 100 µM (inactive).

In the case of `COc1cc(C2SCC(=O)N2NC(=O)c2ccc(NC(C)=O)cc2OC)ccc1O` (centres undefined), the GI50 with SNB-19 is 30.3 µM (inactive); with OVCAR-3, > 100 µM (inactive); with MDA-MB-435 it was > 100 µM (inactive); in the assay with SK-MEL-28, > 100 µM (inactive); with T47D it was 67.1 µM (inactive); in the assay with SK-OV-3, 6.27 µM (inactive). The GI50 with HL-60 is 54.2 µM (inactive); in the assay on A549, 54.2 µM (inactive); with RPMI-8226 it was 0.883 µM (active); with UO-31 it was > 100 µM (inactive); in the assay with NCI/ADR-RES, 96.4 µM (inactive); in the assay with MCF7, 51.5 µM (inactive). For the same compound, the GI50 in the assay with CAKI-1 was > 100 µM (inactive); in the assay on MDA-N it was > 100 µM (inactive); with CCRF-CEM it was > 100 µM (inactive); with PC-3 it was 37.4 µM (inactive); in the assay on SR, > 100 µM (inactive).

For `CCOP(=O)(OCC)/C(=C/c1ccccc1)CC(C)=O`, the GI50 in the assay with SNB-19, in the assay with OVCAR-3, with MDA-MB-435, in the assay on NCI-H226, in the assay with SK-MEL-28 and in the assay with T47D was > 100 µM (inactive) in each case. For the same compound, the GI50 is > 100 µM (inactive) in the assay with SK-OV-3; 22.1 µM (inactive) in the assay with HL-60; > 100 µM (inactive) with A549; > 100 µM (inactive) in the assay on NCI-H460; > 100 µM (inactive) in the assay on UO-31; > 100 µM (inactive) in the assay with TK-10. Further, the GI50 in the assay on NCI/ADR-RES, in the assay with MCF7, in the assay on CAKI-1, with MDA-N, with CCRF-CEM and in the assay with PC-3 was > 100 µM (inactive) each time.

As to `OC(C1CO1)C(O)C1CO1` (centres undefined), the GI50 is 58.9 µM (inactive) in the assay on SNB-19; 70.3 µM (inactive) in the assay on OVCAR-3; 101 µM (inactive) with MDA-MB-435; 92.3 µM (inactive) in the assay on SK-MEL-28; 17 µM (inactive) in the assay with T47D; 43.1 µM (inactive) with SK-OV-3. The GI50 is 3.21 µM (inactive) in the assay with HL-60; 69 µM (inactive) in the assay with RPMI-8226; 3.33 µM (inactive) with NCI-H460; 48.5 µM (inactive) in the assay on UO-31; 86.3 µM (inactive) with TK-10; 40.7 µM (inactive) with NCI/ADR-RES. In addition, the GI50 was 11.7 µM (inactive) with MCF7; 29.9 µM (inactive) in the assay with MDA-N; 3.71 µM (inactive) in the assay on CCRF-CEM; 39.8 µM (inactive) in the assay on PC-3; 1.75 µM (inactive) in the assay with SR.

For `COC(=O)c1ccccc1C1CN=NC12Cc1cc(C)cc(C)c1C2=O` (centres undefined), the GI50 in the assay with SNB-19 is > 100 µM (inactive); in the assay on OVCAR-3, 96.6 µM (inactive); in the assay on MDA-MB-435, 36.4 µM (inactive); with NCI-H226, 99.3 µM (inactive); in the assay with SK-MEL-28, > 100 µM (inactive); in the assay with T47D, 44.7 µM (inactive). Further, the GI50 in the assay on SK-OV-3 is > 100 µM (inactive); in the assay on HL-60, 22 µM (inactive); in the assay on A549, 45.5 µM (inactive); in the assay on NCI-H460, 45.5 µM (inactive); in the assay with UO-31, 43 µM (inactive); in the assay on TK-10, 60.4 µM (inactive). Further, the GI50 in the assay on NCI/ADR-RES was 38.4 µM (inactive); in the assay on MCF7, 27.5 µM (inactive); in the assay on CAKI-1 it was 36.8 µM (inactive); in the assay with MDA-N it was 57 µM (inactive); with CCRF-CEM, 33.4 µM (inactive); in the assay on PC-3 it was 37.5 µM (inactive).

For the compound `CCOC(=O)CC[C@H](NC(=O)c1ccc(CNc2nc3cc(C(F)(F)F)ccc3nc2C(=O)OCC)cc1)C(=O)OCC`, the GI50 was 9.14 µM (inactive) in the assay with SNB-19; > 38.8 µM (inactive) in the assay on OVCAR-3; > 73.6 µM (inactive) in the assay with MDA-MB-435; > 69.8 µM (inactive) in the assay on SK-MEL-28; 18.1 µM (inactive) with T47D; 31.4 µM (inactive) in the assay on SK-OV-3. Besides, the GI50 is > 100 µM (inactive) with HL-60; 34.7 µM (inactive) in the assay on A549; 5.58 µM (inactive) in the assay on RPMI-8226; 15.5 µM (inactive) in the assay on NCI-H460; 25.2 µM (inactive) in the assay with UO-31; 15.4 µM (inactive) in the assay on TK-10. Further, the GI50 in the assay with NCI/ADR-RES was 26.5 µM (inactive); with MCF7, 19 µM (inactive); in the assay with CAKI-1, 14.3 µM (inactive); with MDA-N, > 100 µM (inactive); in the assay on CCRF-CEM, > 100 µM (inactive); in the assay on PC-3 it was 30.3 µM (inactive). In addition, the GI50 in the assay on SR is > 100 µM (inactive).

For the compound `CC(=O)c1csc2c1C(=O)c1scc(C(C)=O)c1C2=O`, the GI50 was 1.8 µM (inactive) in the assay with SNB-19; 0.231 µM (active) with OVCAR-3; 0.188 µM (active) in the assay with MDA-MB-435; 2.25 µM (inactive) with NCI-H226; 1.97 µM (inactive) in the assay on SK-MEL-28; 0.323 µM (active) in the assay with T47D. Also, the GI50 in the assay on SK-OV-3 is 2.22 µM (inactive); in the assay on HL-60 it was 0.112 µM (active); in the assay with A549 it was 1.97 µM (inactive); with RPMI-8226, 0.944 µM (active); with NCI-H460 it was 1.03 µM (active); in the assay with UO-31, 2 µM (inactive). The GI50 was 2.54 µM (inactive) in the assay with TK-10; 1.61 µM (inactive) with NCI/ADR-RES; 1.38 µM (inactive) in the assay on MCF7; 2.22 µM (inactive) with CAKI-1; 0.176 µM (active) in the assay on MDA-N; 0.5 µM (active) in the assay with CCRF-CEM. The GI50 in the assay on PC-3 is 2.84 µM (inactive).

As for `CC(C)(Cl)C(Br)CC/C(=C/CBr)CBr.CC(C)(Cl)C(Br)CC/C(=C\CBr)CBr` (centres undefined), the GI50 was 4.12 µM (inactive) with SNB-19; 2.45 µM (inactive) with OVCAR-3; 1.87 µM (inactive) with MDA-MB-435; 24.6 µM (inactive) in the assay with NCI-H226; 3.2 µM (inactive) in the assay on SK-MEL-28; 4.23 µM (inactive) in the assay with T47D. Besides, the GI50 was 15 µM (inactive) in the assay with SK-OV-3; 0.757 µM (active) in the assay on HL-60; 12.5 µM (inactive) in the assay with A549; 1.11 µM (active) with RPMI-8226; 3.61 µM (inactive) with NCI-H460; 1.62 µM (inactive) with UO-31. Besides, the GI50 in the assay on TK-10 is 4.1 µM (inactive); in the assay on NCI/ADR-RES, 2.86 µM (inactive); in the assay on MCF7, 2.84 µM (inactive); in the assay with MDA-N, 2.62 µM (inactive); in the assay with CCRF-CEM, 0.959 µM (active); in the assay with PC-3, 7.45 µM (inactive).

`Cc1cc2[nH]c3c(C#N)c4c(c(=O)n3c2cc1C)CCCC4`: the GI50 is 31 µM (inactive) with SNB-19; > 100 µM (inactive) with OVCAR-3; 67.3 µM (inactive) with MDA-MB-435; > 100 µM (inactive) in the assay on NCI-H226; > 100 µM (inactive) in the assay with SK-MEL-28; > 100 µM (inactive) with T47D. Moreover, the GI50 in the assay with SK-OV-3 is 14.1 µM (inactive); with HL-60, 96.6 µM (inactive); in the assay with A549, > 100 µM (inactive); in the assay with NCI-H460, > 100 µM (inactive); in the assay with UO-31, > 100 µM (inactive); in the assay with TK-10, > 100 µM (inactive). Besides, the GI50 in the assay with NCI/ADR-RES is > 100 µM (inactive); with MCF7, > 100 µM (inactive); in the assay on CAKI-1 it was > 100 µM (inactive); in the assay on MDA-N it was 87.9 µM (inactive); with CCRF-CEM it was > 100 µM (inactive); with PC-3 it was > 100 µM (inactive).
